Test results as given in patent US6534504B1, “Indazolyloxy propanolamines for improving livestock production” (Eli Lilly and Company, priority 1999, dated 2003).
Like-named read-outs stand apart in the source and are kept apart here.

What was measured:
cattle [1] = assay: Oral administration (gavage) to cattle: serum NEFA and SUN levels; format: in vivo, cattle (Angus/Angus cross steer calves); conditions: 1 mg per kilogram body weight oral gavage, mean of five animals; for change in vivo at 1 mg/kg: Bos taurus
Experimental: In the present example, fifteen head of Angus/Angus cross steer calves, weighing approximately 484 pounds (220 kg) initially to 604 pounds (274 kg) by the end of these three trials, were placed in pens in the cattle facilities, at 5 calves per pen. Standard vaccination and coccidal control were administered.
Calves were fed ad libitum twice daily, approximately 10-15 pounds (4.54-6.81 kg)/day. The feeding times were staggered once treatment was initiatedto ensure that all calves were fed approximately one hour before the treatments were administered and blood samples were obtained. During the A.M. treatment period, the cattle were prevented from returning to feed until the +180 minute blood sample had been collected.
Treatments were administered once a day via oral gavage. The treatments contained 1 mg of test compound per kilogram body weight and were administered in a 50/50 PEG 200/water vehicle, followed with a flush of 20 mls of 50/50 PEG 200/water.
A baseline blood sample (T=0) was taken immediately before the oral gavage treatment was administered. At 90 minutes post-treatment (T+90 min) another blood sample was taken. The cattle were returned to their designated pens until 180 minutes post-treatment (T+180 min), when a third blood sample was collected. The calves were not allowed access to their feed until they had completed the 180 minute blood sample. Additional blood samples were collected from each calf at 24 and 48 hours post treatment.
All blood samples were taken from the jugular vein and placed into serum tubes. Serum was assayed on an IL Monarch analyzer. Blood samples were collected pretreatment (T=0), 90 minutes post-treatment (T+90 min), 180 minutes post-treatment (T+180 min) and 24 hours post-treatment (T+24 h) and 48 hours post-treatment (T+48 h). Sera at T=0, T+90 min, T+180 min, T+24 h, and T+48 h were analyzed for NEFA and SUN.

chickens = assay: Anabolic effects when administered in feed to chickens; format: in vivo, chicken (Peterson-Hubbard male chicks)
Description: Approximately 1500 Peterson-Hubbard day-old male chicks were used in a randomized, complete block design with 6 treatments (Control; Clenbuterol at 1 PPM; Compound 1 at 3 and 15 PPM (mg/kg feed); and Compound 5 at 3 and 15 PPM) using pen location in the barn as the blocking factor. Treatments were randomly allotted to pens within each block for a total of 6 pens per block and 6 blocks in the wing. Each treatment consisted of 6 pens, with 10 birds per pen, during the experimental period.
Day-of-age birds were obtained from Pine Manor Hatchery in Goshen, Ind. Approximately 40 birds per pen were setup at random upon receipt. On day 30 of the growout period, all birds were weighed and the 15 birds closest to the block mean were selected. These birds were allowed to acclimate until day 35 of age. On this day, all remaining birds were weighed again, and the 10 birds/pen closest to the block mean were chosen for the treatment phase. Birds were provided ad libitum access to feed and water throughout the trial. All birds were fed a 23% crude protein corn-soy ration from day 1 until day 18 of age. The feed was changed to a 20% crude protein corn-soy ration for day 18 to day 49. The treatment feed was mixed using the 20% crude protein corn-soy basal ration. Treatments were administered in the feed from day 35 through day 49. Feed consumption was calculated over the entire 14 day treatment period. Birds were weighed at trial completion (day 49), and transported to Purdue University meat laboratory for slaughter and carcass measurements on day 50. Weights of the hot carcass, fat pad, and viscera were taken on all animals. Weights of the bone-in, skin-on breast, and the bone-in, skin-on leg quarters were taken only on the control treatment and the high doses of both experimental compounds.

cattle [2] = assay: Intravenous administration to cattle: serum NEFA and SUN levels; format: in vivo, cattle (Angus/Angus cross calves); conditions: mean of five animals; for Δ % SUN 24 Hours (percent decrease in serum urea nitrogen compared with baseline T=0) / ΔNEFA 24 Hours (increase in NEFA in blood compared with baseline T=0): 40 μg per kilogram intravenously at 6:30 A.M. and 2:30 P.M., 24 hours post treatment; for ΔNEFA 15 Min. (increase in NEFA in blood compared with baseline T=0): 40 μg per kilogram intravenously, 15 minutes post treatment
Description: Angus/Angus cross steer calves, both heifers and steers, weighing approximately 282 pounds (128 kg) initially to 788 pounds (358 kg) over the course of these studies, were placed in pens at 5 calves per pen. The cattle were acclimated to the pens for at least 1 week prior to initiating the study.
Calves were fed ad libitum twice daily, (approximately 6-15 pounds (2.7-6.8 kg)/day). During the treatment day, in the A.M. period, the feeding times were staggered to ensure that all animals were fed approximately one hour before the treatments were administered. During the P.M. treatment period, the cattle were fed immediately after receiving the P.M. injection.
After taking a pretreatment (T=0) blood sample from each animal, 40 μg per kilogram of a test compound was administered intravenously in the jugular vein at 6:30 A.M. and 2:30 P.M. Each test compound was administered at a concentration of 1.00-1.25 mg/ml in a treatment vehicle that was a 50/50 mixture of polyethylene glycol 200/water.
A blood sample was taken at fifteen minutes post-treatment (T+15 min). The calves were returned to their respective pens until their next treatment, approximately eight hours later. The next morning at 6:30 A.M. a blood sample was collected from all calves at 24 hours post-treatment (T+24h). All blood samples were analyzed for the non-esterified fatty acid level (NEFA) and serum urea nitrogen level (SUN). The post-treatment NEFA and SUN levels in each individual animal were compared with the levels found before treatment.

[3] = 24 hours post treatment, read-out: Δ % SUN 24 Hours (percent decrease in serum urea nitrogen compared with baseline T=0)
[4] = 48 hours post treatment, read-out: Δ % SUN 48 Hours (percent decrease in serum urea nitrogen compared with baseline T=0)
[5] = 1 PPM in feed, 14 day treatment period
[6] = 3 PPM in feed, 14 day treatment period
[7] = 3 PPM in feed, 14 day treatment period (day 35 to 49)
[8] = 15 PPM in feed, 14 day treatment period
[9] = 15 PPM in feed, 14 day treatment period (day 35 to 49)

SMILES: CC(C)(Cc1ccc(Oc2ccc(C(N)=O)cc2)cc1)NC[C@H](O)COc1cccc2[nH]c(=S)[nH]c12
- ΔNEFA 24 Hours (increase in NEFA in blood compared with baseline T=0) (cattle [1]; 24 hours post treatment): 17 µmol/L
- change in vivo at 1 mg/kg (cattle [1]; [3]): -8%
- change in vivo at 1 mg/kg (cattle [1]; [4]): -12%

SMILES: CC(C)(Cc1ccc(Oc2ncccc2C(N)=O)cc1)NC[C@H](O)COc1cccc2[nH]ccc12
- ΔNEFA 24 Hours (increase in NEFA in blood compared with baseline T=0) (cattle [1]; 24 hours post treatment): -30 µmol/L
- change in vivo at 1 mg/kg (cattle [1]; [3]): -42%
- change in vivo at 1 mg/kg (cattle [1]; [4]): -30%

SMILES: CC(C)(Cc1ccc(Oc2ncccc2C(N)=O)cc1)NC[C@H](O)COc1cccc2[nH]c(=S)[nH]c12
- ΔNEFA 24 Hours (increase in NEFA in blood compared with baseline T=0) (cattle [1]; 24 hours post treatment): 101 µmol/L
- change in vivo at 1 mg/kg (cattle [1]; [3]): -17%
- change in vivo at 1 mg/kg (cattle [1]; [4]): -13%

SMILES: CC(C)(Cc1ccc(Oc2ncccc2C(N)=O)cc1)NC[C@H](O)COc1cccc2[nH]c(=O)[nH]c12
- ΔNEFA 24 Hours (increase in NEFA in blood compared with baseline T=0) (cattle [1]; 24 hours post treatment): 10 µmol/L
- change in vivo at 1 mg/kg (cattle [1]; [3]): -22%
- change in vivo at 1 mg/kg (cattle [1]; [4]): -19%

SMILES: CC(C)(Cc1ccc(Oc2ccc(C#N)cn2)cc1)NC[C@H](O)COc1cccc2[nH]ccc12
- ΔNEFA 24 Hours (increase in NEFA in blood compared with baseline T=0) (cattle [1]; 24 hours post treatment): 63 µmol/L
- change in vivo at 1 mg/kg (cattle [1]; [3]): -55%
- change in vivo at 1 mg/kg (cattle [1]; [4]): -40%

SMILES: CC(C)(Cc1ccc(Oc2ccc(C#N)cn2)cc1)NC[C@H](O)COc1cccc2[nH]c(=O)[nH]c12
- ΔNEFA 24 Hours (increase in NEFA in blood compared with baseline T=0) (cattle [1]; 24 hours post treatment): 18 µmol/L
- change in vivo at 1 mg/kg (cattle [1]; [3]): 2%
- change in vivo at 1 mg/kg (cattle [1]; [4]): 5%

SMILES: CC(C)(Cc1ccc(Oc2ccc(C(=O)N3CCOCC3)cn2)cc1)NC[C@H](O)COc1cccc2[nH]ccc12
- ΔNEFA 24 Hours (increase in NEFA in blood compared with baseline T=0) (cattle [1]; 24 hours post treatment): -47 µmol/L
- change in vivo at 1 mg/kg (cattle [1]; [3]): -45%
- change in vivo at 1 mg/kg (cattle [1]; [4]): -28%

SMILES: CC(C)(Cc1ccc(Oc2ccc(C(=O)N3CCOCC3)cn2)cc1)NC[C@H](O)COc1cccc2[nH]c(=S)[nH]c12
- ΔNEFA 24 Hours (increase in NEFA in blood compared with baseline T=0) (cattle [1]; 24 hours post treatment): 6 µmol/L
- change in vivo at 1 mg/kg (cattle [1]; [3]): -18%
- change in vivo at 1 mg/kg (cattle [1]; [4]): -15%

SMILES: CC(C)(Cc1ccc(Oc2ccc(S(C)(=O)=O)cc2)cc1)NC[C@H](O)COc1cccc2[nH]c(=S)[nH]c12
- ΔNEFA 24 Hours (increase in NEFA in blood compared with baseline T=0) (cattle [1]; 24 hours post treatment): 37 µmol/L
- change in vivo at 1 mg/kg (cattle [1]; [3]): -1%
- change in vivo at 1 mg/kg (cattle [1]; [4]): -5%

SMILES: CC(C)(Cc1ccc(Oc2ccc(S(C)(=O)=O)cc2)cc1)NC[C@H](O)COc1cccc2[nH]c(=O)[nH]c12
- ΔNEFA 24 Hours (increase in NEFA in blood compared with baseline T=0) (cattle [1]; 24 hours post treatment): -6 µmol/L
- change in vivo at 1 mg/kg (cattle [1]; [3]): -10%
- change in vivo at 1 mg/kg (cattle [1]; [4]): -6%

SMILES: CC(C)(C)NCC(O)c1cc(Cl)c(N)c(Cl)c1 (stereo not shown) [Clenbuterol]
- improvement in feed conversion versus control (chickens; [5]): did not show an improvement
- increase in weight gain over control (chickens; [5]): 3.54%

SMILES: CC(C)(Cc1ccc(Oc2ccc(C(N)=O)cn2)cc1)NC[C@H](O)COc1cccc2[nH]ncc12 [Compound 1]
- Δ % SUN 24 Hours (percent decrease in serum urea nitrogen compared with baseline T=0) (cattle [2]): −28.7%
- ΔNEFA 24 Hours (increase in NEFA in blood compared with baseline T=0) (cattle [2]): 820.9 µmol/L
- ΔNEFA 15 Min. (increase in NEFA in blood compared with baseline T=0) (cattle [2]): 554.4 µmol/L
- improvement of feed efficiency (chickens; [6]): not improved
- increase in weight gain over control (chickens; [7]): 3.54%
- improvement of feed efficiency (chickens; [8]): 4.67%
- increase in weight gain over control (chickens; [9]): 11.50%
- ΔNEFA 24 Hours (increase in NEFA in blood compared with baseline T=0) (cattle [1]; 24 hours post treatment): 329 µmol/L
- change in vivo at 1 mg/kg (cattle [1]; [3]): -38%
- change in vivo at 1 mg/kg (cattle [1]; [4]): -32%

SMILES: CC(C)(Cc1ccc(Oc2ccc(C#N)cn2)cc1)NC[C@H](O)COc1cccc2[nH]ncc12 [Compound 3]
- Δ % SUN 24 Hours (percent decrease in serum urea nitrogen compared with baseline T=0) (cattle [2]): −24.7%
- ΔNEFA 24 Hours (increase in NEFA in blood compared with baseline T=0) (cattle [2]): 1069.3 µmol/L
- ΔNEFA 15 Min. (increase in NEFA in blood compared with baseline T=0) (cattle [2]): 269.4 µmol/L
- ΔNEFA 24 Hours (increase in NEFA in blood compared with baseline T=0) (cattle [1]; 24 hours post treatment): 349 µmol/L
- change in vivo at 1 mg/kg (cattle [1]; [3]): -58%
- change in vivo at 1 mg/kg (cattle [1]; [4]): -57%

SMILES: CC(C)(Cc1ccc(Oc2ccc(C(=O)N3CCOCC3)cn2)cc1)NC[C@H](O)COc1cccc2[nH]ncc12 [Compound 4]
- Δ % SUN 24 Hours (percent decrease in serum urea nitrogen compared with baseline T=0) (cattle [2]): −40.1%
- ΔNEFA 24 Hours (increase in NEFA in blood compared with baseline T=0) (cattle [2]): 1251.8 µmol/L
- ΔNEFA 15 Min. (increase in NEFA in blood compared with baseline T=0) (cattle [2]): 194.8 µmol/L
- ΔNEFA 24 Hours (increase in NEFA in blood compared with baseline T=0) (cattle [1]; 24 hours post treatment): 1129 µmol/L
- change in vivo at 1 mg/kg (cattle [1]; [3]): -47%
- change in vivo at 1 mg/kg (cattle [1]; [4]): -48%

SMILES: CC(C)(Cc1ccc(Oc2ccc(S(C)(=O)=O)cc2)cc1)NC[C@H](O)COc1cccc2[nH]ncc12 [Compound 5]
- Δ % SUN 24 Hours (percent decrease in serum urea nitrogen compared with baseline T=0) (cattle [2]): −25.4%
- ΔNEFA 24 Hours (increase in NEFA in blood compared with baseline T=0) (cattle [2]): 1541.9 µmol/L
- ΔNEFA 15 Min. (increase in NEFA in blood compared with baseline T=0) (cattle [2]): 397.3 µmol/L
- improvement of feed efficiency (chickens; [6]): not improved
- increase in weight gain over control (chickens; [7]): 2.65%
- improvement of feed efficiency (chickens; [8]): 3.27%
- increase in weight gain over control (chickens; [9]): 8.85%
- ΔNEFA 24 Hours (increase in NEFA in blood compared with baseline T=0) (cattle [1]; 24 hours post treatment): 1216 µmol/L
- change in vivo at 1 mg/kg (cattle [1]; [3]): -33%
- change in vivo at 1 mg/kg (cattle [1]; [4]): -60%
